In brackets after ≈: the same amount, converted by molar mass. Read-outs that look alike come from different tables or passages of the source.
Tests used:
[1] = tested on: Streptococcus pyogenes A 308; assay: MIC, standard strain 1; type: cell-based; conditions: read-out: Minimal Inhibitory Concentration(MIC)
Description: (§1) In order to illustrate antibiotic effectiveness of the compounds of the present invention, the minimal inhibitory concentrations (MIC's) of the representative compounds were determined against standard strains and compared with ceftazidime and cefpirome, which were used as control compounds.
(§2) The MIC values were taken by employing a two-fold dilution method: that is, two-fold serial dilutions of each of the test compounds were made from initial concentration of […]; each 1.5 ml of them was dispersed in 13.5 ml of Muller Hinton agar medium to adjust to […]; the standard test strain which had the concentration of 10^7 CFU/ml was inoculated by medium;and these were incubated at 37° C. for 18 hours.
(§3) The test used twenty kinds of standard test strains which induced urinary tract infections, respiratory organ infections, skin soft tissue infections, plasma infections, gastrointestinal infections, central nervous system infections, most of which produce β-lactamase. The standard test strains used are as follows:
1. Streptococcus pyogenes A 308

[2] = tested on: Streptococcus pyogenes A 77; assay: MIC, standard strain 2; type: cell-based; conditions: read-out: Minimal Inhibitory Concentration(MIC)
Description: as §1, §2, §3
2. Streptococcus pyogenes A 77

Streptococcus faecium 8b = assay: MIC, standard strain 3; type: cell-based; conditions: Enterococcus faecium, read-out: Minimal Inhibitory Concentration(MIC)
Description: as §1, §2, §3
3. Streptococcus faecium 8b

[3] = tested on: Staphylococcus aureus SG 511; assay: MIC, standard strain 4; type: cell-based; conditions: SG511, 18 h, read-out: Minimal Inhibitory Concentration(MIC)
Description: as §1, §2, §3
4. Staphylococcus aureus SG 511

[4] = tested on: Staphylococcus aureus 285; assay: MIC, standard strain 5; type: cell-based; conditions: read-out: Minimal Inhibitory Concentration(MIC)
Description: as §1, §2, §3
5. Staphylococcus aureus 285

[5] = tested on: Staphylococcus aureus 503; assay: MIC, standard strain 6; type: cell-based; conditions: read-out: Minimal Inhibitory Concentration(MIC)
Description: as §1, §2, §3
6. Staphylococcus aureus 503

Escherichia coli 0 55 = assay: MIC, standard strain 7; type: cell-based; conditions: 055, E. coli 0 55, two-fold dilution, Muller Hinton agar, 10^7 CFU/ml, 37° C., 18 hours, read-out: Minimal Inhibitory Concentration(MIC)
Description: as §1, §2
(§4) The test used twenty kinds of standard test strains which induced urinary tract infections, respiratory organ infections, skin soft tissue infections, plasma infections, gastrointestinal infections, central nervous system infections, most of which produce β-lactamase.

Escherichia coli DC 0 = assay: MIC, standard strain 8; type: cell-based; conditions: DC0, E. coli DC 0, two-fold dilution, Muller Hinton agar, 10^7 CFU/ml, 37° C., 18 hours, read-out: Minimal Inhibitory Concentration(MIC)
Description: as §1, §2, §4

Escherichia coli DC 2 = assay: MIC, standard strain 9; type: cell-based; conditions: DC2, E. coli DC 2, two-fold dilution, Muller Hinton agar, 10^7 CFU/ml, 37° C., 18 hours, read-out: Minimal Inhibitory Concentration(MIC)
Description: as §1, §2, §4

Escherichia coli TEM = assay: MIC, standard strain 10; type: cell-based; conditions: 18 h, read-out: Minimal Inhibitory Concentration(MIC)
Description: as §1, §2, §4

Escherichia coli 1507 E = assay: MIC, standard strain 11; type: cell-based; conditions: read-out: Minimal Inhibitory Concentration(MIC)
Description: as §1, §2, §4

[6] = tested on: Pseudomonas aeruginosa 9.027; assay: MIC, standard strain 12; type: cell-based; conditions: read-out: Minimal Inhibitory Concentration(MIC)
Description: as §1, §2, §3
12. Pseudomonas aeruginosa 9.027

[7] = tested on: Pseudomonas aeruginosa 1592 E; assay: MIC, standard strain 13; type: cell-based; conditions: read-out: Minimal Inhibitory Concentration(MIC)
Description: as §1, §2, §3
13. Pseudomonas aeruginosa 1592 E

[8] = tested on: Pseudomonas aeruginosa 1771; assay: MIC, standard strain 14; type: cell-based; conditions: read-out: Minimal Inhibitory Concentration(MIC)
Description: as §1, §2, §3
14. Pseudomonas aeruginosa 1771

[9] = tested on: Pseudomonas aeruginosa 1771M; assay: MIC, standard strain 15; type: cell-based; conditions: 18 h, read-out: Minimal Inhibitory Concentration(MIC)
Description: as §1, §2, §3
15. Pseudomonas aeruginosa 1771M

Salmonella typhimurium = assay: MIC, standard strain 16; type: cell-based; conditions: Salmonella enterica, read-out: Minimal Inhibitory Concentration(MIC)
Description: as §1, §2, §3
16. Salmonella typhimurium

[10] = tested on: Klebsiella aerogenes 1552 E; assay: MIC, standard strain 18; type: cell-based; conditions: read-out: Minimal Inhibitory Concentration(MIC)
Description: as §1, §2, §3
18. Klebsiella aerogenes 1552 E

[11] = tested on: Enterobacter cloacae P 99; assay: MIC, standard strain 19; type: cell-based; conditions: P99, 18 h, read-out: Minimal Inhibitory Concentration(MIC)
Description: as §1, §2, §3
19. Enterobacter cloacae P 99

[12] = tested on: Enterobacter cloacae 1321 E; assay: MIC, standard strain 20; type: cell-based; conditions: read-out: Minimal Inhibitory Concentration(MIC)
Description: as §1, §2, §3
20. Enterobacter cloacae 1321 E

MRSA(Yonsei Univ.) = assay: MIC, clinically separated strains; type: cell-based
Description: as §2

acute toxicity test = conditions: in vivo; acute toxicity, intravenous injection
Staphylococcus = conditions: compared with DQ-2556; cited from earlier work
Pseudomonas = conditions: compared with DQ-2556 or ceftazidime; cited from earlier work
[13] = A77, S. pyogenes A 77, two-fold dilution, Muller Hinton agar, 10^7 CFU/ml, 37° C., 18 hours
[14] = S. faecium 8b, two-fold dilution, Muller Hinton agar, 10^7 CFU/ml, 37° C., 18 hours
[15] = Staphylococcus aureus, S. aureus 285, two-fold dilution, Muller Hinton agar, 10^7 CFU/ml, 37° C., 18 hours
[16] = Staphylococcus aureus, S. aureus 503, two-fold dilution, Muller Hinton agar, 10^7 CFU/ml, 37° C., 18 hours
[17] = E. coli 1507 E, two-fold dilution, Muller Hinton agar, 10^7 CFU/ml, 37° C., 18 hours
[18] = Pseudomonas aeruginosa, P. aeruginosa 9.027, two-fold dilution, Muller Hinton agar, 10^7 CFU/ml, 37° C., 18 hours
[19] = P. aeruginosa 1592 E, two-fold dilution, Muller Hinton agar, 10^7 CFU/ml, 37° C., 18 hours
[20] = Pseudomonas aeruginosa, P. aeruginosa 1771, two-fold dilution, Muller Hinton agar, 10^7 CFU/ml, 37° C., 18 hours
[21] = K. aerogenes 1552 E, two-fold dilution, Muller Hinton agar, 10^7 CFU/ml, 37° C., 18 hours
[22] = E. cloacae 1321 E, two-fold dilution, Muller Hinton agar, 10^7 CFU/ml, 37° C., 18 hours

| SMILES | MIC ([1]; A308, 18 h) | MIC [2, 13] | MIC (Streptococcus faecium 8b; [14]) | MIC [3] | MIC [4, 15] | MIC [5, 16] | MIC (Escherichia coli 0 55) | MIC (Escherichia coli DC 0) | MIC (Escherichia coli DC 2) | MIC (Escherichia coli TEM) | MIC (Escherichia coli 1507 E; [17]) | MIC [6, 18] | MIC [7, 19] | MIC [8, 20] | MIC [9] | MIC [10, 21] | MIC [11] | MIC [12, 22] | MIC (Salmonella typhimurium; TYPHIMURIUM, 18 h) | further results |
| --- | --- | --- | --- | --- | --- | --- | --- | --- | --- | --- | --- | --- | --- | --- | --- | --- | --- | --- | --- | --- |
| CO/N=C(\C(=O)N[C@@H]1C(=O)N2C(C(=O)[O-])=C(C[n+]3ccc(C(N)=S)c4c3CCC4)CS[C@H]12)c1csc(N)n1 [Example 5, 7-β-[(Z)-2-(2-aminothiazol-4-yl)-2-methoxyiminoacetamido]-3-[(2,3-cyclopenteno-4-thiocarbamoyl-1-pyridinium)methyl]-3-cephem-4-carboxylate] | 4 µg/mL (≈ 6.97 µM) | 2 µg/mL (≈ 3.49 µM) | 12500 µg/mL (≈ 21800 µM) | 781 µg/mL (≈ 1360 µM) | 1560 µg/mL (≈ 2720 µM) | 391 µg/mL (≈ 682 µM) | 49 µg/mL (≈ 85.4 µM) | 98 µg/mL (≈ 171 µM) | 25 µg/mL (≈ 43.6 µM) | 98 µg/mL (≈ 171 µM) | 98 µg/mL (≈ 171 µM) | 6250 µg/mL (≈ 10900 µM) | 3120 µg/mL (≈ 5450 µM) | 1560 µg/mL (≈ 2720 µM) | 391 µg/mL (≈ 682 µM) | 49 µg/mL (≈ 85.4 µM) | 6250 µg/mL (≈ 10900 µM) | 13 µg/mL (≈ 22.7 µM) |  | MIC (Salmonella typhimurium; S. typhimurium, two-fold dilution, Muller Hinton agar, 10^7 CFU/ml, 37° C., 18 hours): 49 µg/mL (≈ 85.4 µM); antibiotic activities against MRSA(Yonsei Univ.), in words (MRSA(Yonsei Univ.)): unexpectedly potent antibiotic activities; LD50 (acute toxicity test): > 3000 mg/kg |
| CO/N=C(\C(=O)N[C@@H]1C(=O)N2C(C(=O)[O-])=C(C[n+]3ccc(-c4nc(C)cs4)c4c3CCC4)CS[C@H]12)c1csc(N)n1 [Example 25, 7-β-[(Z)-2-(2-aminothiazol-4-yl)-2-methoxyiminoacetamido]-3-[(2,3-cyclopenteno-4-(4-methylthiazol-2-yl)-1-pyridinium)methyl]-3-cephem-4-carboxylate] |  | 2 µg/mL (≈ 3.27 µM) | 12500 µg/mL (≈ 20400 µM) | 391 µg/mL (≈ 639 µM) | 781 µg/mL (≈ 1280 µM) | 195 µg/mL (≈ 319 µM) | 195 µg/mL (≈ 319 µM) | 25 µg/mL (≈ 40.9 µM) | 25 µg/mL (≈ 40.9 µM) | 391 µg/mL (≈ 639 µM) | 781 µg/mL (≈ 1280 µM) | 100000 µg/mL (≈ 163000 µM) | 50000 µg/mL (≈ 81700 µM) | 50000 µg/mL (≈ 81700 µM) | 1560 µg/mL (≈ 2560 µM) | 781 µg/mL (≈ 1280 µM) | 25000 µg/mL (≈ 40900 µM) | 98 µg/mL (≈ 160 µM) | 391 µg/mL (≈ 639 µM) | MIC ([1]; A308, S. pyogenes A 308, two-fold dilution, Muller Hinton agar, 10^7 CFU/ml, 37° C., 18 hours): 4 µg/mL (≈ 6.54 µM) |
| CC(C)(O/N=C(\C(=O)N[C@@H]1C(=O)N2C(C(=O)[O-])=C(C[n+]3ccccc3)CS[C@H]12)c1csc(N)n1)C(=O)O [ceftazidime, reference compound] | 98 µg/mL (≈ 179 µM) |  |  | 12500 µg/mL (≈ 22900 µM) |  |  | 98 µg/mL (≈ 179 µM) | 98 µg/mL (≈ 179 µM) | 98 µg/mL (≈ 179 µM) | 195 µg/mL (≈ 357 µM) |  |  |  |  | 98 µg/mL (≈ 179 µM) |  | 100000 µg/mL (≈ 183000 µM) |  | 195 µg/mL (≈ 357 µM) | MIC ([2]; A77, 18 h): 49 µg/mL (≈ 89.6 µM); MIC (Streptococcus faecium 8b; 8B, 18 h): 100000 µg/mL (≈ 183000 µM); MIC ([4]; Staphylococcus aureus, 285, 18 h): 12500 µg/mL (≈ 22900 µM); MIC ([5]; Staphylococcus aureus, 503, 18 h): 98 µg/mL (≈ 179 µM); MIC (Escherichia coli 1507 E; 1507E, 18 h): 195 µg/mL (≈ 357 µM); MIC ([6]; Pseudomonas aeruginosa, 9.027, 18 h): 3120 µg/mL (≈ 5720 µM); MIC ([7]; 1592E, 18 h): 781 µg/mL (≈ 1430 µM); MIC ([8]; Pseudomonas aeruginosa, 1771, 18 h): 391 µg/mL (≈ 715 µM); MIC ([10]; 1552E, 18 h): 98 µg/mL (≈ 179 µM); MIC ([12]; 1321E, 18 h): 25 µg/mL (≈ 45.7 µM); activity against Staphylococcus, in words (Staphylococcus): relatively low activity against Staphylococcus; activity against Pseudomonas, in words (Pseudomonas): higher activity against Pseudomonas |

— patent publication US5593985A, “Cephalosporin compounds” (priority 1994, dated 1997)
